Values quoted from earlier work as cited in patent publication US10449179B2, “Stable veterinary anthelmintic formulations” (DONAGHYS LIMITED, priority 2014, dated 2019).

Conditions: LD50 literature averages for three animal species, human equivalent, safety factor 10

C[S+](C)[O-] [DMSO, dimethylsulfoxide]
safety relative to N-methylpyrrolidone (acute oral LD50): approximately 5 times
